Common to all, as to format: in vivo
Assay [1] deals with Blumeria graminis f. sp. Tritici. The assay is described as follows: Test C: preventive spray on wheat seedlings, wheat powdery mildew disease rating. The following applies: 50 ppm, 100 = 100% disease control, 0 = no control; for pest or weed control at 50 ppm: Blumeria graminis, 192 h. Summed up: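 Disease control scored visually after 8 days at 20° C, on a 0–100 scale versus untreated controls. Seedlings had received a preventive run-off spray one day before dusting with powdery mildew spores; compounds were suspended in acetone/water (50/50) containing 50–250 ppm PEG400.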

Assay [2] has as its system Puccinia recondita f. sp. Tritici. The assay is described as follows: Test B: preventive spray on wheat seedlings, wheat leaf rust disease rating. The following applies: 50 ppm, 100 = 100% disease control, 0 = no control; for pest or weed control at 50 ppm: Puccinia recondita, 192 h. In a few lines:
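Preventive test: one day after spraying wheat seedlings to run-off with ppm suspensions (acetone/water 1:1, 50-250 ppm PEG400), leaf rust spores were applied. Incubation was 24 h at saturation then 7 days at 20° C.; disease scored 0-100% control relative to untreated.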

Another assay deals with Alternaria solani. The assay is described as follows: Test F: preventive spray on tomato seedlings, tomato early blight disease rating. The following applies: 50 ppm, 100 = 100% disease control, 0 = no control; for pest or weed control at 50 ppm: Alternaria solani, 120 h. In a few lines:
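Preventive test: a day after run-off spraying with acetone/water–PEG400 suspensions (ppm), seedlings received an A. solani spore inoculum. Incubation was 48 h at 27 °C in saturated air followed by 3 days in a 20 °C chamber. Visual scores express percent disease control versus untreated plants (0–100).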

The subject of another assay is Botrytis cinerea. The assay is described as follows: Test E: preventive spray on tomato seedlings, tomato Botrytis disease rating. The following applies: 50 ppm, 100 = 100% disease control, 0 = no control; for pest or weed control at 50 ppm: Botrytis cinerea, 120 h. Summed up:
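Preventive test: one day after spraying seedlings to run-off with test suspension (ppm in acetone/water, 50–250 ppm PEG400), B. cinerea spores applied. Incubation 48 h at 20 °C saturated humidity plus 3 days at 24 °C preceded visual rating as percent disease control versus controls.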

In the next assay the test system is Phakopsora pachyrhizi. Description: Test D: preventive spray on soybean seedlings, Asian soybean rust disease rating. Particulars: 50 ppm, 100 = 100% disease control, 0 = no control; for pest or weed control at 50 ppm: Phakopsora pachyrhizi, 216 h. In a few lines:
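Seedlings of soybean were challenged with rust spores one day after a run-off spray of test suspension (acetone/water 50/50, 50–250 ppm PEG400); after 24 h saturated humidity and 8 days growth, both at 22° C, disease was scored visually.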

A further assay relates to Zymoseptoria tritici. The assay is described as follows: Test A: preventive spray on wheat seedlings, wheat leaf blotch disease rating. The following applies: 50 ppm, 100 = 100% disease control, 0 = no control; for pest or weed control at 50 ppm: Zymoseptoria tritici, 456 h. Summed up:
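Disease scored after 17 days in a 20 °C growth chamber, following 48 h at 24 °C in saturated air after spore inoculation with Z. tritici. Inoculation came one day after wheat seedlings were sprayed to run-off with test suspension (acetone/water 50/50, 50–250 ppm PEG400).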

Regarding `COc1cc(OC)c(Cl)c(-c2nc(C)nc(C)c2-c2c(F)cc(F)cc2F)c1` [Compound 54, 4-(2-chloro-3,5-dimethoxyphenyl)-2,6-dimethyl-5-(2,4,6-trifluorophenyl)pyrimidine], the pest or weed control (as a rule, the degree to which the test organism was suppressed or injured, in per cent) at 50 ppm stood at 100% in assay [1]; 100% in assay [2]; 99% in the assay with Alternaria solani; 97% in the assay on Botrytis cinerea; 100% in the assay on Phakopsora pachyrhizi; 100% with Zymoseptoria tritici.
In the case of `COc1cc(OC)c(Cl)c(-c2nc(C)nc(C)c2-c2c(F)cccc2F)c1` [Compound 55], in assay [1], the “Test C disease control rating” value was determined as 100%. For the same compound, the “Test B disease control rating” value in assay [2] is listed as 100%. Further, the “Test F disease control rating” value in the assay on Alternaria solani turned out to be 99%. For the same compound, the “Test E disease control rating” value in the assay with Botrytis cinerea was found to be 99%. Besides, the “Test D disease control rating” value in the assay on Phakopsora pachyrhizi is on record as 100%. Further, the “Test A disease control rating” value in the assay on Zymoseptoria tritici is 100%.
As to `CCc1nc(C)nc(-c2cc(OC)cc(OC)c2Cl)c1-c1ccc(F)cc1Cl` [Compound 56, 4-(2-chloro-3,5-dimethoxyphenyl)-5-(2-chloro-4-fluorophenyl)-6-ethyl-2-methylpyrimidine], the pest or weed control at 50 ppm in assay [1] amounted to 100%; in assay [2], 100%; with Alternaria solani it was 91%; in the assay on Botrytis cinerea, 94%; in the assay with Phakopsora pachyrhizi, 88%; in the assay with Zymoseptoria tritici, 100%.
In the case of `CCc1nc(C)nc(-c2cc(OC)cc(OC)c2Cl)c1-c1c(F)cccc1F` [Compound 57, 4-(2-chloro-3,5-dimethoxyphenyl)-5-(2,6-difluorophenyl)-6-ethyl-2-methylpyrimidine], the pest or weed control at 50 ppm stood at 100% in assay [1]; 100% in assay [2]; 97% in the assay on Alternaria solani; 96% with Botrytis cinerea; 73% in the assay on Phakopsora pachyrhizi; 100% with Zymoseptoria tritici.
`COc1cc(OC)cc(-c2nc(C)nc(OC)c2-c2ccc(F)cc2Cl)c1` [Compound 58]: the “Test C disease control rating” value in assay [1] is listed as 21%. Moreover, the “Test B disease control rating” value in assay [2] is listed as 0%. The “Test F disease control rating” value with Alternaria solani is 0%. For the same compound, the “Test E disease control rating” value in the assay on Botrytis cinerea is reported as 79%. Also, the “Test D disease control rating” value in the assay on Phakopsora pachyrhizi is recorded as 0%. Besides, the “Test A disease control rating” value in the assay with Zymoseptoria tritici turned out to be 24%.
For `COc1cc(OC)c(Br)c(-c2nc(C)nc(C)c2-c2ccc(F)cc2Cl)c1` [Compound 59, 4-(2-bromo-3,5-dimethoxyphenyl)-2,6-dimethyl-5-(2-chloro-4-fluorophenyl)pyrimidine], the pest or weed control at 50 ppm was found to be 100% in assay [1]; 100% in assay [2]; 98% with Alternaria solani; 88% in the assay on Botrytis cinerea; 100% with Phakopsora pachyrhizi; 100% with Zymoseptoria tritici.
Take `COc1cc(OC)cc(-c2c(-c3c(F)cc(F)cc3F)noc(=O)c2C)c1` [Compound 60]: the “Test C disease control rating” value in assay [1] amounted to 96%. The “Test B disease control rating” value in assay [2] is 99%. Also, the “Test F disease control rating” value with Alternaria solani is 62%. The “Test E disease control rating” value in the assay on Botrytis cinerea came to 87%. The “Test D disease control rating” value in the assay on Phakopsora pachyrhizi was found to be 75%. In the assay with Zymoseptoria tritici, the “Test A disease control rating” value is given as 82%.
Turning to `COc1cc(OC)cc(-c2c(-c3ccc(F)cc3F)noc(=O)c2C)c1` [Compound 61], in assay [1], the “Test C disease control rating” value stood at 0%. The “Test B disease control rating” value in assay [2] turned out to be 55%. In addition, in the assay on Alternaria solani, the “Test F disease control rating” value is reported as 0%. Besides, the “Test E disease control rating” value in the assay on Botrytis cinerea amounted to 83%. In addition, the “Test D disease control rating” value with Phakopsora pachyrhizi worked out at 0%. In the assay on Zymoseptoria tritici, the “Test A disease control rating” value was 63%.
Turning to `COc1cc(OC)c(Cl)c(-c2c(-c3ccc(F)cc3F)noc(=O)c2C)c1` [Compound 62], in assay [1], the “Test C disease control rating” value worked out at 76%. Further, the “Test B disease control rating” value in assay [2] stood at 99%. For the same compound, the “Test F disease control rating” value in the assay with Alternaria solani came out at 0%. In addition, in the assay with Botrytis cinerea, the “Test E disease control rating” value worked out at 97%. Also, the “Test D disease control rating” value in the assay with Phakopsora pachyrhizi amounted to 87%. The “Test A disease control rating” value in the assay with Zymoseptoria tritici worked out at 100%.

Values taken from patent US20240308968A1, “FUNGICIDAL SUBSTITUTED HETEROCYCLES” (FMC Corporation, priority 2021, published 2024).
